Reference: patent publication US6355799B1, “Substituted benzene compounds, process for their preparation, and herbicidal and defoliant compositions containing them” (ISK Americas Incorporated, priority 1997, dated 2002)

Experiments:
Format in all cases: in vivo
[1] = test system: redroot pigweed (Amaranthus retroflexus, AMARE); experiment: Pre-emerge test, greenhouse herbicide activity screening; conditions: rated 14 days after application, 0 = no damage, 100 = complete death
Summary of the method: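 Compounds in acetone were track-sprayed at 15-1000 g ai/ha (187 l/ha) on sandy loam pots: pre-emerge one day after seeding, post-emerge at 2-3 leaf stage with 0.25% v/v non-ionic surfactant. Phytotoxicity was rated 14 days later on a 0 (no damage) to 100 (complete death) scale.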

[2] = test system: barnyardgrass (Echinochloa crus-galli, ECHCG); experiment: as above; conditions: rated 14 days after application, 0 = no damage, 100 = complete death
Summary of the method: (§1)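 Visual ratings on a 0-100 scale (0 no damage, 100 all plants dead) were taken at 14 days after treatment. Rates of 15-1000 g ai/ha in acetone, 187 l/ha, were sprayed onto soil one day after planting (pre-emerge) or onto 2-3 leaf plants with 0.25% v/v surfactant (post-emerge).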

[3] = test system: common ragweed (Ambrosia artemisizfolia L., AMBEL); experiment: as above; conditions: rated 14 days after application, 0 = no damage, 100 = complete death
Summary of the method: as §1

[4] = test system: green foxtail (Setaria viridis, SETVI); experiment: as above; conditions: rated 14 days after application, 0 = no damage, 100 = complete death
Summary of the method: as §1

[5] = test system: ivyleaf morningglory (Ipomoea hederacea, IPOHE); experiment: as above; conditions: rated 14 days after application, 0 = no damage, 100 = complete death
Summary of the method: as §1

[6] = test system: johnsongrass (Sorghum halepense, SORHA); experiment: as above; conditions: rated 14 days after application, 0 = no damage, 100 = complete death
Summary of the method: as §1

[7] = test system: lambsquarters (Chenopodium album, CHEAL); experiment: as above; conditions: rated 14 days after application, 0 = no damage, 100 = complete death
Summary of the method: as §1

[8] = test system: large crabgrass (Digitaria sanguinalis, DIGSA); experiment: as above; conditions: rated 14 days after application, 0 = no damage, 100 = complete death
Summary of the method: as §1

[9] = test system: sicklepod (Cassia obtusifolia, CASOB); experiment: as above; conditions: rated 14 days after application, 0 = no damage, 100 = complete death
Summary of the method: as §1

[10] = test system: velvetleaf (Abutilon theophrasti, ABUTH); experiment: as above; conditions: rated 14 days after application, 0 = no damage, 100 = complete death
Summary of the method: as §1

[11] = test system: field corn (Zea mays L., var. Dekalb 535, CORN); experiment: Pre-emerge test, crop safety; conditions: rated 14 days after application, 0 = no damage, 100 = complete death
Summary of the method: (§2)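 Rating: 0–100 visual injury, 14 DAA. Application: acetone, 187 l/ha, 15–1000 g ai/ha, flat-fan track sprayer with nozzle 40–45 cm above soil or canopy. Post-emerge runs used 0.25% v/v surfactant on 2–3 leaf plants.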

[12] = test system: upland rice (Oryza sp., var. Tebonnet, RICE); experiment: Pre-emerge test, crop safety; conditions: rated 14 days after application, 0 = no damage, 100 = complete death
Summary of the method: as §2

[13] = test system: barnyardgrass (Echinochloa crus-galli, ECHCG); experiment: Post-emerge test, greenhouse herbicide activity screening; conditions: post-emerge, 14 days after application, rating scale 0-100
Summary of the method: (§3)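 Applied at 15–1000 g ai/ha from acetone in 187 l/ha spray volume. Post-emergence applications included 0.25% v/v non-ionic surfactant and reached plants sown 8–21 days before. Pre-emergence applications were incorporated by surface watering. Efficacy or crop damage was rated on a 0–100 scale after 14 days.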

[14] = test system: common ragweed (Ambrosia artemisizfolia L., AMBEL); experiment: as above; conditions: post-emerge, 14 days after application, rating scale 0-100
Summary of the method: as §3

[15] = test system: green foxtail (Setaria viridis, SETVI); experiment: as above; conditions: post-emerge, 14 days after application, rating scale 0-100
Summary of the method: as §3

[16] = test system: ivyleaf morningglory (Ipomoea hederacea, IPOHE); experiment: as above; conditions: post-emerge, 14 days after application, rating scale 0-100
Summary of the method: as §3

[17] = test system: johnsongrass (Sorghum halepense, SORHA); experiment: as above; conditions: post-emerge, 14 days after application, rating scale 0-100
Summary of the method: as §3

[18] = test system: lambsquarters (Chenopodium album, CHEAL); experiment: as above; conditions: post-emerge, 14 days after application, rating scale 0-100
Summary of the method: as §3

[19] = test system: large crabgrass (Digitaria sanguinalis, DIGSA); experiment: as above; conditions: post-emerge, 14 days after application, rating scale 0-100
Summary of the method: as §3

[20] = test system: redroot pigweed (Amaranthus retroflexus, AMARE); experiment: as above; conditions: post-emerge, 14 days after application, rating scale 0-100
Summary of the method: as §3

[21] = test system: sicklepod (Cassia obtusifolia, CASOB); experiment: as above; conditions: post-emerge, 14 days after application, rating scale 0-100
Summary of the method: as §3

[22] = test system: velvetleaf (Abutilon theophrasti, ABUTH); experiment: as above; conditions: post-emerge, 14 days after application, rating scale 0-100
Summary of the method: as §3

[23] = test system: field corn (Zea mays L., var. Dekalb 535, CORN); experiment: Post-emerge test, crop safety; conditions: post-emerge, 14 days after application, rating scale 0-100
Summary of the method: as §1

[24] = test system: upland rice (Oryza sp., var. Tebonnet, RICE); experiment: Post-emerge test, crop safety; conditions: post-emerge, 14 days after application, rating scale 0-100
Summary of the method: as §1

COc1c(Cl)cc(F)c(-n2c(=O)cc(C(F)(F)F)n(C)c2=O)c1NC(=O)c1ccccc1F [2-39]
Pre-emerge Herbicidal Activity, phytotoxicity rating (0-100), AMARE ([1]; 63 g ai/ha): 100
Pre-emerge Herbicidal Activity, phytotoxicity rating (0-100), AMARE ([1]; 250 g ai/ha): 100
Pre-emerge Herbicidal Activity, phytotoxicity rating (0-100), ECHCG ([2]; 63 g ai/ha): 90
Pre-emerge Herbicidal Activity, phytotoxicity rating (0-100), ECHCG ([2]; 250 g ai/ha): 100
Pre-emerge Herbicidal Activity, phytotoxicity rating (0-100), AMBEL ([3]; 63 g ai/ha): 100
Pre-emerge Herbicidal Activity, phytotoxicity rating (0-100), AMBEL ([3]; 250 g ai/ha): 100
Pre-emerge Herbicidal Activity, phytotoxicity rating (0-100), SETVI ([4]; 63 g ai/ha): 100
Pre-emerge Herbicidal Activity, phytotoxicity rating (0-100), SETVI ([4]; 250 g ai/ha): 100
Pre-emerge Herbicidal Activity, phytotoxicity rating (0-100), IPOHE ([5]; 63 g ai/ha): 95
Pre-emerge Herbicidal Activity, phytotoxicity rating (0-100), IPOHE ([5]; 250 g ai/ha): 100
Pre-emerge Herbicidal Activity, phytotoxicity rating (0-100), SORHA ([6]; 63 g ai/ha): 60
Pre-emerge Herbicidal Activity, phytotoxicity rating (0-100), SORHA ([6]; 250 g ai/ha): 100
Pre-emerge Herbicidal Activity, phytotoxicity rating (0-100), CHEAL ([7]; 63 g ai/ha): 100
Pre-emerge Herbicidal Activity, phytotoxicity rating (0-100), CHEAL ([7]; 250 g ai/ha): 100
Pre-emerge Herbicidal Activity, phytotoxicity rating (0-100), DIGSA ([8]; 63 g ai/ha): 99
Pre-emerge Herbicidal Activity, phytotoxicity rating (0-100), DIGSA ([8]; 250 g ai/ha): 100
Pre-emerge Herbicidal Activity, phytotoxicity rating (0-100), CASOB ([9]; 63 g ai/ha): 100
Pre-emerge Herbicidal Activity, phytotoxicity rating (0-100), CASOB ([9]; 250 g ai/ha): 100
Pre-emerge Herbicidal Activity, phytotoxicity rating (0-100), ABUTH ([10]; 63 g ai/ha): 100
Pre-emerge Herbicidal Activity, phytotoxicity rating (0-100), ABUTH ([10]; 250 g ai/ha): 100
Pre-emerge phytotoxicity rating (0-100), crop damage, CORN ([11]; 63 g ai/ha): 70
Pre-emerge phytotoxicity rating (0-100), crop damage, CORN ([11]; 250 g ai/ha): 95
Pre-emerge phytotoxicity rating (0-100), crop damage, RICE ([12]; 63 g ai/ha): 90
Pre-emerge phytotoxicity rating (0-100), crop damage, RICE ([12]; 250 g ai/ha): 99
phytotoxicity rating ECHCG ([13]; 63 g ai/ha): 0
phytotoxicity rating ECHCG ([13]; 250 g ai/ha): 60
phytotoxicity rating AMBEL ([14]; 63 g ai/ha): 50
phytotoxicity rating AMBEL ([14]; 250 g ai/ha): 95
phytotoxicity rating SETVI ([15]; 63 g ai/ha): 20
phytotoxicity rating SETVI ([15]; 250 g ai/ha): 80
phytotoxicity rating IPOHE ([16]; 63 g ai/ha): 99
phytotoxicity rating IPOHE ([16]; 250 g ai/ha): 100
phytotoxicity rating SORHA ([17]; 63 g ai/ha): 10
phytotoxicity rating SORHA ([17]; 250 g ai/ha): 60
phytotoxicity rating CHEAL ([18]; 63 g ai/ha): 90
phytotoxicity rating CHEAL ([18]; 250 g ai/ha): 95
phytotoxicity rating DIGSA ([19]; 63 g ai/ha): 0
phytotoxicity rating DIGSA ([19]; 250 g ai/ha): 50
phytotoxicity rating AMARE ([20]; 63 g ai/ha): 70
phytotoxicity rating AMARE ([20]; 250 g ai/ha): 95
phytotoxicity rating CASOB ([21]; 63 g ai/ha): 60
phytotoxicity rating CASOB ([21]; 250 g ai/ha): 90
phytotoxicity rating ABUTH ([22]; 63 g ai/ha): 100
phytotoxicity rating ABUTH ([22]; 250 g ai/ha): 100
phytotoxicity rating CORN ([23]; 63 g ai/ha): 20
phytotoxicity rating CORN ([23]; 250 g ai/ha): 70
phytotoxicity rating RICE ([24]; 63 g ai/ha): 30
phytotoxicity rating RICE ([24]; 250 g ai/ha): 70
